From BigSolDB 2.1

CN1C(C(=O)Nc2ccccn2)=C(O)c2ccccc2S1(=O)=O
solubility (mole fraction)
Conditions | 293.2 K | 298.2 K | 303.2 K | 308.2 K | 313.2 K
in ethanol | 0.000103 | 0.000177 | 0.000334 | 0.000553 | 0.00078
in ethyl acetate | 0.00426 | 0.00497 | 0.0057 | 0.00661 | 0.00741
